From patent publication US20210317090A1, “AMINO ACID DEPLETION AGENTS AS ANTIPROLIFERATIVE AGENTS” (University of Central Florida Research Foundation, Inc., priority 2018, published 2021)

Experiments:
L3.6pl cells = test: Intracellular leucine and methionine after cell lysis (LCMS); assay type: cell-based, human; details: 72 h
Experimental: This example illustrates aspects according to various embodiments pertaining to a 72 h experiment with Compound 10 in L3.6pl cells. Ten milliliters of a cell suspension containing L3.6pl human pancreatic cancer cells (50,000 cells/mL) and aminoguanidine ([…]) were placed in treated plastic Petri dishes (d=9 cm) and incubated overnight at 37° C. After 24 h, the cells were dosed with compound 10 at 2 μM, 5 μM, or 7 μM. (Note: Stock solutions of 10 at 2, 5, and 7 mM were dissolved in phosphate buffered saline (PBS) and were filtered through a 0.2 μm filter prior to use. The experiments were maintained with a total volume of 10.01 mL where 10 mL of the cell suspension was placed in a plastic dish and each compound or the equivalent PBS volume was added to make up the total volume 10.01 mL for each dish. For example, for the control experiment PBS (10 μL) was added to make up the total volume (10 mL+10 μL=10.01 mL). After 72 h incubation, the cells were collected first by pipetting off the supernatant containing floating dead cells from the culture dish as well as media and placing them into 15 mL tubes. The supernatant containing floating cells was centrifuged (4 min at 1,000 rpm). The cell-free supernatant (supernatant #1) was collected into a new 15 mL tube and quantified (˜8.6 mL) and was then stored frozen and was later quantified by LCMS to investigate the media composition of particular polyamine and amino acid analytes. The attached cells on the dish were washed with PBS (5 mL). The PBS wash was removed by suction and additional PBS (2 mL) was added and again suctioned off to provide twice-washed cells still adhered to the dish. Trypsin (2 mL) was then added to each dish and incubated (3-5 min) until all the cells were detached. Fresh media (8 mL) was added to quench the trypsin. The cell solutions were pipetted into separate 15 mL tubes and centrifuged (4 min at 1,000 rpm). The resulting supernatant was removed to provide a pellet. The pellet was suspended in PBS (10 mL) and was counted by a hemocytometer to provide cell counts for each experimental condition. The pellet was then centrifuged (4 min at 1,000 rpm) and the supernatant removed and the remaining pellet was quantified via protein and polyamine analysis.
To each cell pellet, a perchloric acid (100 μL) buffer solution (0.2M HClO4/1 M NaCl) and 0.9% NaCl (50 μL) was added. The samples were sonicated via sonic dismembranator in small bursts until samples were homogenized and cloudy. Additional perchloric acid (50 μL) buffer solution was added. The homogenized samples were then vortexed and centrifuged (10 min at 4,000 rpm). The supernatants of the respective samples (supernatant #2) were removed and quantified by calibrated pipet (˜190 μL volume). Note: 100 μL of supernatant #2 was placed into a micro-centrifuge tube for polyamine analysis by the N-dansylation HPLC protocol and the rest was placed into a different micro-centrifuge tube for analysis by LCMS of specific amino acid analytes. The respective supernatants were stored in the freezer for polyamine and LCMS quantification and the remaining protein pellet was used for the protein analysis. The protein pellet was dissolved in aq. NaOH (1 mM, 200 μL). The sample stood at room temperature with occasional vortex (45 min) and was then centrifuged (15 min at 15,000 rpm). The supernatant was collected and dissolved protein was quantified using the commercial Pierce BCA kit according to manufacturer's protocol.
This example illustrates aspects according to various embodiments pertaining to an LCMS Analysis. […]

LAT-1 = target: T1, LAT-1 (Homo sapiens, UniProt Q01650); test: 3H-Leucine uptake assay; assay type: cell-based; details: L3.6pl cells, increasing concentration, 15 min uptake (FIG. 10D, 10E)
T1 construct: endogenous in cells; host or cells: L3.6pl human pancreatic cancer cells
T1 sequence (Q01650 whole entry): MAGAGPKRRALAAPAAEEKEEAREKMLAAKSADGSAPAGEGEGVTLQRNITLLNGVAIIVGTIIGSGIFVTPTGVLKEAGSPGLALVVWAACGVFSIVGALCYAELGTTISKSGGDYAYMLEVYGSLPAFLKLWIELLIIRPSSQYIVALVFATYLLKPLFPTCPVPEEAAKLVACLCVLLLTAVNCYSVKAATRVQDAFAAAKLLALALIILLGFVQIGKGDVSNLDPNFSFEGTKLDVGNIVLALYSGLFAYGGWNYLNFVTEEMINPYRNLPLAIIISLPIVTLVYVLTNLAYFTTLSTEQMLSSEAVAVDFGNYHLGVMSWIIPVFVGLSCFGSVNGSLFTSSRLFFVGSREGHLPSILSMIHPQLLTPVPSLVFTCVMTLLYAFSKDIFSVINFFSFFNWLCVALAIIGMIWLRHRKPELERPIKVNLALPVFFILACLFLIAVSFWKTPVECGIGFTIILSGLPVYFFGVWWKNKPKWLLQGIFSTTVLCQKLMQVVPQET
T1 sequence (P08195 102-630 partner): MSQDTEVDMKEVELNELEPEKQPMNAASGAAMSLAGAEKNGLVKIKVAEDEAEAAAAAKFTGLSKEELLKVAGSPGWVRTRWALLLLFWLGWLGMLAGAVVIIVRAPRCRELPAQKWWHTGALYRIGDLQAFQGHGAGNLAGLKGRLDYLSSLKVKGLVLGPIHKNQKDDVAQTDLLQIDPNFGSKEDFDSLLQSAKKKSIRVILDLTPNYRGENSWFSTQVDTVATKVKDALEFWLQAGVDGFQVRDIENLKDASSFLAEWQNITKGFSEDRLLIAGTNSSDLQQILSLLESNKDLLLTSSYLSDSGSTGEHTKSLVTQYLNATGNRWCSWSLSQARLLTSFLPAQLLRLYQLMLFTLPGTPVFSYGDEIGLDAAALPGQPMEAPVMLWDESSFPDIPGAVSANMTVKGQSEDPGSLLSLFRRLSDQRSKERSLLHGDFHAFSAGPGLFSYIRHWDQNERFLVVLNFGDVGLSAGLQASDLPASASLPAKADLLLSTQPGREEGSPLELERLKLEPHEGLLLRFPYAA
Experimental: ^3H-Leucine uptake experiments were performed according to the protocol developed by Hälfliger et al. (2018) (referenced below with the following changes. Briefly, cells were seeded at 60% confluency in a 24-well plate and incubated for 4 h at 37° C. After 4 hours, different concentrations of compound 10 were added and the cells were then incubated overnight. L-^3H-leucine uptake inhibition was measured for 15 minutes using a 12 μM stock of L-[^3H]leucine (79 Ci/mmol). The final concentration of ^3H-leucine in each well was 1.2 uM. This concentration produced a CPM reading of ˜4000 cpm for the control. Uptake was terminated by removing the buffer solution followed by washing the cells with cold Na^+-free Hank's Balanced Salt Solution. Cells were then lysed to give ˜500 μL of cell lysate. A portion of the cell lysate (200 μL) was mixed with Scintiverse™ BD Cocktail for determining radiocounts. The radioactivity was measured with a scintillation counter (Beckman Coulter LS 6500 Multi-Purpose Scintillation Counter). Another portion of the cell lysate (300 μL) was used for protein determination using the BCA method. The final data was expressed as cpm/microgram of protein to account for the different number of cells remaining after the experiment. This was necessary because compound 10 was toxic and less cells were present after the overnight incubation (24 h). […]

## CC(C)CCN1CCN(C(CNCc2ccccc2)CC2CCCCC2)CC1CC(C)C.Cl.Cl.Cl (stereo not shown) [Compound 10, Benzyl-{3-cyclohexyl-2-[3-isobutyl-4-(3-methyl-butyl)-piperazin-1-yl]-propyl}-amine trihydrochloride salt]
L3.6pl cells; 2 μM
  Intracellular level Leucine: 152 ± 8 pmol/mg protein
  Intracellular level Methionine: 226 ± 21 pmol/mg protein
L3.6pl cells; 5 μM
  Intracellular level Leucine: 94 ± 3 pmol/mg protein
  Intracellular level Methionine: 41 ± 23 pmol/mg protein
L3.6pl cells; 7 μM
  Intracellular level Leucine: 77 ± 1 pmol/mg protein
  Intracellular level Methionine: Not detected
LAT-1
  3H-Leucine uptake: able to inhibit the uptake
